We go through twelve molecules from US7407951B2, “Pyrrolobenzodiazepines” (Spirogen Limited, priority 2002, dated 2008).

The test system of one experiment is Breast MACL MCF7. The experiment can be described thus: In vitro clonogenic assay (two-layer agar), breast. It counts as cell-based, human. The note with it: continuous exposure, 8-20 days, colony count. The procedure: (§1) In order to determine the activity of the compounds synthesised, solid human tumour xenografts growing subcutaneously in serial passages in thymus aplastic nude mice (Naval Medical Research Institute, USA nu/nu strain) were removed under sterile condition, mechanically disaggregated and subsequently incubated with an enzyme cocktail consisting of collagenase (41 U/ml, Sigma), DNAse I (125 U/ml, Roche), hyaluronidase (1000 U/ml, Sigma) and dispase II (1.0 U/ml) in RPMI 1640-Medium (Life Technologies) at 37° C. for 30 minutes. Cells were passed through sieves of 200 μm and 50 μm mesh size and washed twice with sterile PBS-buffer. The percentage of viable cells was determined in a Neubauer-hemocytometer using trypan blue exclusion. The cells generated were as follows: • Breast MACL MCF7 • […] • Lung 629L • Melanoma MEXF 462NL
(§2) The clonogenic assay was performed in a 24-well format according to a modified two-layer agar assay introduced by Hamburger, A. W. and Salmon, S. E., Science, 197, […] (1977). The bottom layer consisted of 0.2 ml/well of Iscove's Modified Dulbecco's Medium (supplemented with 20% fetal calf serum and 1% gentamicin) and 0.75% agar. 4×10^4 to 8×10^4 cells were added to 0.2 ml of the same culture medium supplemented with 0.4% agar and plated in 24-multiwell dishes onto the bottom layer. The test compounds were applied by continuous exposure (drug overlay) in 0.2 ml culture medium. Each dish included six control wells containing the vehicle and drug treated groups in triplicate at 6 concentrations. Cultures were incubated at 37° C. and 7.5% CO2 in a humidified atmosphere for 8-20 days and monitored closely for colony growth using an inverted microscope. Within this period, in vitro tumour growth led to the formation of colonies with a diameter of >50 μm. At the time of maximum colony formation, counts were performed with an automatic image analysis system (OMNICOM FAS IV, Biosys GmbH). 24 hours prior to evaluation, vital colnies were stained with a sterile aqueous solution of 2-(4-iodophenyl)-3-(4-nitrophenyl)-5-phenyltetrazolium chloride (1 mg/ml, 100 μl/well).
(§3) The IC50 values of the test compounds were determined by plotting compound concentration versus cell viability.

For the next experiment, the system named is renal cell lines. The experiment is described as follows: NCI hollow fibre assay, renal variation. Type of experiment: in vivo, human. The note with it: three cell lines; for IP + SC score: combined score, 5 or more referred for xenograft testing; for IP score: intraperitoneal fibres in mice; for IP score / SC score: drug IP QDx4, 2 doses, 2 points per dose giving 50% or greater reduction in viable cell mass; for SC score: subcutaneous fibres in mice. From the text: (§4) The Biological testing Branch of the Developmental Therapeutics Program of the NCI has adopted a preliminary in vivo screening tool for assessing the potential anticancer activity of compounds identified by the large scale in vitro cell screen. For these assays, human tumour cells are cultivated in polyvinylidene (PVDF) hollow fibres, and a sample of each cell line is implanted into each of two physiologic compartments (intraperitoneal and subcutaneaous) in mice. Each test mouse received a total of 6 fibres (3 intraperitoneally and 3 subcutaneously) representing 3 distinct cancer cell lines. These mice are treated with potential antitumour compounds at each of 2 test doses by the intraperitoneal route using a QD×4 treatment schedule. Vehicle controls consist of 6 mice receiving the compound diluent only. The fibre cultures are collected on the day following the last day of treatment. To assess anticancer effects, the viable cell mass is determined for each of the cell lines using a formazyn dye (MTT) conversion assay. From this, the % T/C can be calculated using the average optical density of compound treated samples divided by the average optical; density of the vehicle controls. In addition, the net increase in cell mass can be determined for each sample, as a sample of fibre cultures are assessed for viable cell mass on the day of implantation into mice. Thus, the cytostatic and cytocidal capacities of the test compound can be assessed.
(§5) Generally, each compound is tested against a minimum of 12 human cancer cell lines. This represents a total of 4 experiments since each experiment contains 3 cell lines. The data are reported as % T/C for each of the 2 compound doses against each of the cell lines with separate values calculated for the intraperitoneal and subcutaneous samples.
(§6) Compounds are selected for further in vivo testing in standard subcutaneous xenograft models on the basis of several hollow fibre assay criteria. These include: (1) a % T/C of 50 or less in 10 of the 48 possible test combinations (12 cell lines×2 sites ×2 compound doses); (2) activity at a distance (intraperitoneal drug/subcutaneous culture) in a minimum of 4 of the 24 possible combinations; and/or (3) a net cell kill of 1 or more of the cell lines in either implant site. To simplify evaluation, a points system has been adopted which allows rapid evaluation of the activity of a given compound. For this, a value of 2 is assigned for each compound dose which results in a 50% or greater reduction in viable cell mass. The intraperitoneal and subcutaneous samples are scored separately so that criteria (1) and (2) can be evaluated. Compounds with a combined IP+SC score of 20, a SC score of 8 or a net cell kill of one or more cell lines are referred for xenograft testing. […] In addition to these criteria, other factors (e.g. unique structure, mechanism of action) may result in referral of a compound for xenograft testing without the compound meeting these criteria.
(§7) Certain compounds of the invention were tested in variations of these assays, to assess their activity against renal and melanoma cell lines. In the melanoma assay, only 6 cell lines are used, and therefore compounds with a combined IP+SC score of 10 or a SC score of 4 are referred for xenograft testing. In the renal assay, only three cell lines are used and therefore compounds with a combined IP+SC score of 5 or a SC score of 2 are referred for xenograft testing.
On the technique in general: Xenograft models place foreign cells or tissue in a host animal.

A further experiment concerns melanoma cell lines. The experiment is described as follows: NCI hollow fibre assay, melanoma variation. The note with it: 6 cell lines; for IP + SC score: combined score, 10 or more referred for xenograft testing; for IP score: intraperitoneal fibres in mice; for IP score / SC score: drug IP QDx4, 2 doses, 2 points per dose giving 50% or greater reduction in viable cell mass; for SC score: subcutaneous fibres in mice. It counts as in vivo, human.
Source text: as §4, §5, §6, §7

The test system of a further experiment is Renal RXF 944L. The experiment can be described thus: In vitro clonogenic assay (two-layer agar), renal. Type of experiment: cell-based, human. The note with it: continuous exposure, 8-20 days, colony count. The procedure: as §1, §2, §3
The subject of a further experiment is Lung 629L. The experiment is described as follows: In vitro clonogenic assay (two-layer agar), lung. Type of experiment: cell-based, human. The note with it: continuous exposure, 8-20 days, colony count. The procedure:
as §1, §2, §3

The next experiment concerns Melanoma MEXF 462NL. The experiment is described as follows: In vitro clonogenic assay (two-layer agar), melanoma. Type of experiment: cell-based, human. The note with it: continuous exposure, 8-20 days, colony count. The procedure: as §1, §2, §3
Experiment [1] concerns approximately 60 human tumour cell lines. The experiment can be described thus: NCI in vitro cytotoxicity screen (SRB assay). The note with it: GI50 in Moles, 48 hour continuous exposure. It counts as cell-based. On the procedure:
The National Cancer Institute (NCI), Bethesda, Md. USA has available an in vitro cytotoxicity screen which consists of approximately 60 human tumour cell lines against which compounds are tested at a minimum of five concentrations each differing 10-fold. A 48 hour continuous exposure protocol is used, where cell viability or growth is estimated with an SRB protein assay.
The test compounds were evaluated against approximately 60 human tumour cell lines. The NCI screening procedures were described in detail by Monks and co-workers (Monks, A et al., Journal of the National Cancer Institute, 1991, 83, 757). Briefly, cell suspensions were diluted according to the particular cell type and the expected target cell density (5000-40,000 cells per well based on cell growth characteristics), and added by pipette (100 μL) into 96-well microtitre plates. The cells were allowed a preincubation period of 24 hours at 37° C. for stabilisation. Dilutions at twice the intended test concentration were added at time zero in 100 μL aliquots to the wells. The test compounds were evaluated at five 10-fold dilutions (10^−4, 10^−5, 10^−6, 10^−7 and 10^−[…]). The test compounds were incubated for 48 hours in 5% CO2 atmosphere and 100% humidity. The cells were then assayed using the sulphorhodamine B assay. […]
For orientation: Sulforhodamine B stains cellular protein and so reports cell mass.

By IC50 is commonly meant the concentration needed to halve the response being measured. Read a high IC50 as weaker potency in that assay. In the experiment on Breast MACL MCF7 (Homo sapiens), `COc1cc2c(cc1OC)C(=O)N1C=C(c3ccc4ccccc4c3)C[C@H]1C=N2` [Compound 11, (11aS)-1,11a-dihydro-7,8-dimethoxy-2-(2-napthyl)-5H-pyrrolo[2,1-c][1,4]benzodiazepin-5-one] came in with a concentration for half-maximal inhibition (IC50) of 0.22 nM.
With `COc1cc2c(cc1OC)C(=O)N1C=C(c3ccc(C(C)(C)C)cc3)C[C@H]1C=N2` [Compound 13, (11aS)-1,11a-dihydro-7,8-dimethoxy-2-(4-tert-butylbenzene)-5H-pyrrolo[2,1-c][1,4]benzodiazepin-5-one], in the experiment on renal cell lines, the “IP + SC score” value stood at 6, the IP score is recorded as 4 and the SC score is reported as 2. In the experiment on Breast MACL MCF7, this molecule returned a half-maximal inhibitory concentration (IC50) of 0.26 nM. In the experiment with melanoma cell lines, the “IP + SC score” value came to 6, the IP score was 2 and the SC score was found to be 4.
As for `COc1cc2c(cc1OC)C(=O)N1C=C(c3ccc(Cl)cc3)C[C@H]1C=N2` [Compound 15, (11aS)-1,11a-dihydro-7,8-dimethoxy-2-(4-chlorobenzene)-5H-pyrrolo[2,1-c][1,4]benzodiazepin-5-one], the IC50 in the experiment on Breast MACL MCF7 (Homo sapiens) was found to be 0.15 nM.
As for `COc1cc2c(cc1OC)C(=O)N1C=C(c3ccc(F)cc3)C[C@H]1C=N2` [Compound 17, (11aS)-1,11a-dihydro-7,8-dimethoxy-2-(4-fluorobenzene)-5H-pyrrolo[2,1-c][1,4]benzodiazepin-5-one], it took 0.17 nM to reach half-maximal inhibition with Renal RXF 944L (Homo sapiens) (IC50).
With `COc1cc2c(cc1OC)C(=O)N1C=C(c3ccccc3C)C[C@H]1C=N2` [Compound 19, (11aS)-1,11a-dihydro-7,8-dimethoxy-2-(2-methylbenzene)-5H-pyrrolo[2,1-c][1,4]benzodiazepin-5-one], in the experiment on Breast MACL MCF7 (Homo sapiens), the concentration for half-maximal inhibition (IC50) was determined as 0.35 nM. In the experiment on melanoma cell lines, the “IP + SC score” value was 8, the IP score is listed as 4 and the SC score is 4. The half-maximal inhibitory concentration (IC50) in the experiment with Lung 629L (Homo sapiens) came out at 1 nM.
As for `CCc1ccc(C2=CN3C(=O)c4cc(OC)c(OC)cc4N=C[C@@H]3C2)cc1` [Compound 21, (11aS)-1,11a-dihydro-7,8-dimethoxy-2-(4-ethylbenzene)-5H-pyrrolo[2,1-c][1,4]benzodiazepin-5-one], the IC50 is below 0.1 nM with Renal RXF 944L, below 0.1 nM in the experiment on Breast MACL MCF7, 0.36 nM in the experiment on Lung 629L and below 0.1 nM in the experiment with Melanoma MEXF 462NL. Besides, the “IP + SC score” value in the experiment on melanoma cell lines stood at 10. For the same molecule, the IP score in the experiment on melanoma cell lines stood at 10. Moreover, the SC score in the experiment with melanoma cell lines is reported as 0.
Regarding `COc1cc2c(cc1OC)C(=O)N1C=C(c3cccs3)C[C@H]1C=N2` [Compound 23, (11aS)-1,11a-dihydro-7,8-dimethoxy-2-(2-thiophene)-5H-pyrrolo[2,1-c][1,4]benzodiazepin-5-one], the “MG_MID (average log GI50 across all cell lines tested)” value in experiment [1] is −6.34. In the experiment on Breast MACL MCF7 (Homo sapiens), this molecule registered an IC50 of 0.35 nM.
On to `COc1cc2c(cc1OC)C(=O)N1C=C(c3ccco3)C[C@H]1C=N2` [Compound 25, (11aS)-1,11a-dihydro-7,8-dimethoxy-2-(2-furan)-5H-pyrrolo[2,1-c][1,4]benzodiazepin-5-one], for which the “MG_MID (average log GI50 across all cell lines tested)” value in experiment [1] was −7.18.
Regarding `COc1cc2c(cc1OC)C(=O)N1C=C(c3c(C)cccc3C)C[C@H]1C=N2` [Compound 27, (11aS)-1,11a-dihydro-7,8-dimethoxy-2-(2,6-dimethylbenzene)-5H-pyrrolo[2,1-c][1,4]benzodiazepin-5-one], in the experiment with renal cell lines, the “IP + SC score” value is listed as 8, the IP score was found to be 4 and the SC score was 4.
Consider `COc1cc2c(cc1OC)C(=O)N1C=C(c3ccccc3)C[C@H]1C=N2` [Compound C1, reference compound], for which the “IP + SC score” value with renal cell lines was 0; in the experiment on melanoma cell lines it was 4. Further, the IP score worked out at 0 in the experiment on renal cell lines and 4 with melanoma cell lines. Further, the SC score in the experiment with renal cell lines and with melanoma cell lines was 0 throughout. Besides, the IC50 with Renal RXF 944L (Homo sapiens) was determined as 20.5 nM; with Breast MACL MCF7 (Homo sapiens), 19.3 nM; in the experiment on Lung 629L (Homo sapiens) it was 44.5 nM; in the experiment with Melanoma MEXF 462NL (Homo sapiens), 40 nM.
On to `COc1ccc(C2=CN3C(=O)c4cc(OC)c(OC)cc4N=C[C@@H]3C2)cc1` [Compound C2], for which the IC50 with Renal RXF 944L (Homo sapiens) worked out at 1.5 nM; in the experiment on Breast MACL MCF7 (Homo sapiens) it was 1.96 nM; in the experiment with Lung 629L (Homo sapiens) it was 5 nM; with Melanoma MEXF 462NL (Homo sapiens), 2.85 nM.
For `COc1cc2c(cc1OC)C(=O)N1C=C(c3ccc(C)cc3)C[C@H]1C=N2` [Compound C3, reference compound], the “IP + SC score” value in the experiment on renal cell lines and in the experiment on melanoma cell lines was 2 in each case. In addition, the IP score with renal cell lines is listed as 2; in the experiment on melanoma cell lines, 0. In addition, the SC score is given as 0 in the experiment with renal cell lines and 2 with melanoma cell lines. Further, the half-inhibitory concentration (IC50) in the experiment on Renal RXF 944L (Homo sapiens) amounted to 0.89 nM; in the experiment with Breast MACL MCF7 (Homo sapiens) it was 1.59 nM; in the experiment with Lung 629L (Homo sapiens), 8 nM; with Melanoma MEXF 462NL (Homo sapiens), 2 nM.
